Assays:
glucocorticoid receptor = biological target: T1, glucocorticoid receptor (Homo sapiens, UniProt P04150); assay: Glucocorticoid Receptor Binding Assay ([3H]-dexamethasone, A549 cell extract); conditions: [3H]-dexamethasone binding, read-out: GR Ki
T1 construct: containing 50-200 ug of A549 cell extract and 1.86 nM [^3H]-dexamethasone; host or cells: A549 human lung epithelial cells (sonicated cell extract)
T1 sequence (P04150 1-777): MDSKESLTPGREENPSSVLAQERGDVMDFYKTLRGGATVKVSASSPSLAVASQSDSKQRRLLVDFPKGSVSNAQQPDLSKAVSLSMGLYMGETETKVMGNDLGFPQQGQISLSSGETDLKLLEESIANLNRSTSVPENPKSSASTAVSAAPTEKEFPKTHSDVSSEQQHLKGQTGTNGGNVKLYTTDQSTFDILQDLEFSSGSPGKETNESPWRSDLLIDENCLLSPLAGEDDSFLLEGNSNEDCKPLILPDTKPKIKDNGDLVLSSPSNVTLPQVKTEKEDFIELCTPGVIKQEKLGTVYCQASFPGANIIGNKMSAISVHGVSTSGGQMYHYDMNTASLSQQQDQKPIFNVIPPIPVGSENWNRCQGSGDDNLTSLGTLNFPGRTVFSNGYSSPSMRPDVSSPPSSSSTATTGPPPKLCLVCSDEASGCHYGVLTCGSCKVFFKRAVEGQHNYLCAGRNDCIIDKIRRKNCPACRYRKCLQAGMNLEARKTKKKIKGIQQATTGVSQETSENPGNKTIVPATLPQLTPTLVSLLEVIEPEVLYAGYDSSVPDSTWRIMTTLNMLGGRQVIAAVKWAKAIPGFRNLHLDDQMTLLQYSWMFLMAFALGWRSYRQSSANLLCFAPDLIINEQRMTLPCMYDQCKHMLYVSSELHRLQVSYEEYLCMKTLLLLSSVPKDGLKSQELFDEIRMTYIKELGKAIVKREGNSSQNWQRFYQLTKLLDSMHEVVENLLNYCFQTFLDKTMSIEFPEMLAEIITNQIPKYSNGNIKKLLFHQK
How it was run: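 Displacement of [3H]-dexamethasone (1.86 nM) from glucocorticoid receptor in sonicated A549 lung epithelial cell extracts, 16 h at 4 °C, pH 7.2 molybdate-containing buffer. Bound radioactivity was scintillation-counted after charcoal/dextran stripping of free ligand.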

human MR = biological target: T2, human MR (Homo sapiens, UniProt P08235); assay: Mineralocorticoid Receptor Binding Assay ([3H]-aldosterone); conditions: [3H]-aldosterone binding, human MR expressed in Sf9 cells; read-out: MR Ki
T2 construct: The full length human MR gene is cloned from a human kidney or human brain cDNA library; His tag from the pAcHLT vector (own knowledge); made in house; host or cells: Sf9 insect cells (baculovirus, pAcHLT transfer vector)
T2 sequence (P08235 1-984): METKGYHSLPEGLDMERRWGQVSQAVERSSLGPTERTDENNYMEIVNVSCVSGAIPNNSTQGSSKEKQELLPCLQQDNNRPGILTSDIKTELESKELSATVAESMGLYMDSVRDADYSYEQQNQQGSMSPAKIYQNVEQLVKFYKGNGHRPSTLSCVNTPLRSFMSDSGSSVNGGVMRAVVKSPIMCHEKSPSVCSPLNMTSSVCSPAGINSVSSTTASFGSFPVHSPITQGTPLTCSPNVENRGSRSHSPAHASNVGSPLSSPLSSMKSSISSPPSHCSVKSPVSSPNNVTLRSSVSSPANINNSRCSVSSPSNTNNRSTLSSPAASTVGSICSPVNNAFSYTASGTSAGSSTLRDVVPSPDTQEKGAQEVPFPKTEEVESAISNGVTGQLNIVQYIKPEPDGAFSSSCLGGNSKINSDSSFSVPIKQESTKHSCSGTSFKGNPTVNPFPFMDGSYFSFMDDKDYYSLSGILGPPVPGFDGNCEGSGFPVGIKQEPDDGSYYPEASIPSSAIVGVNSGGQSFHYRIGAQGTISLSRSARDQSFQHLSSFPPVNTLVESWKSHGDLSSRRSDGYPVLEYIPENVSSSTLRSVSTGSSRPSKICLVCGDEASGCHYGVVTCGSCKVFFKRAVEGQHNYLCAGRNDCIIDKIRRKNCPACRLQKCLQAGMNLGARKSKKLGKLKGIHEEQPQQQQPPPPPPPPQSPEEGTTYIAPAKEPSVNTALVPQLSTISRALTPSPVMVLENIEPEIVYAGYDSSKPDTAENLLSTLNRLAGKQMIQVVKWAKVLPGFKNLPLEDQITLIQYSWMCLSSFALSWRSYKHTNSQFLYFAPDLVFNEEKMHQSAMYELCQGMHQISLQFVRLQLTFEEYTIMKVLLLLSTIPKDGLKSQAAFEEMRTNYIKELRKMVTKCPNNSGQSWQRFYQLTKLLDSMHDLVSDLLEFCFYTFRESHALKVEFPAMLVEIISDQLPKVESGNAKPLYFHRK
How it was run: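 Receptor source: freeze-thaw lysate of baculovirus-infected Sf9 cells carrying full-length human MR, 20-25 μg protein. Incubation ~16 h at 4 °C with shaking, pH 7.5 buffer containing 30 mM sodium molybdate and 10% glycerol.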

SMILES	Ki (glucocorticoid receptor) [µM]	Ki (human MR) [µM]
CS(=O)(=O)Nc1cccc(/C=C2\c3ccccc3CCc3sc(Cl)cc32)c1 [Example 481, N-[3-(2-Chloro-9,10-dihydro-1-thia-benzo[f]azulen-4-ylidenemethyl)-phenyl]-methanesulfonamide]	< 0.5	< 0.5
COc1ccc2c(c1)/C(=C\c1cccc(NS(C)(=O)=O)c1)c1ccccc1CC2 [Example 348]	< 0.5	< 0.5
O=c1[nH]c2ccc(/C=C3\c4ccc(F)cc4COc4cc(F)ccc43)cc2[nH]1 [Example 613, 5-(3,8-Difluoro-6H-dibenzo[b,e]oxepin-11-ylidenemethyl)-1,3-dihydro-benzoimidazol-2-one]	< 0.5	< 0.5
CS(=O)(=O)Nc1cccc(C=C2c3ccc(Cl)cc3CSc3cc(Cl)ccc32)c1 [Example 702]	< 10	< 0.5
CS(=O)(=O)Nc1cccc(C(=C2c3ccccc3CCc3ccccc32)c2ccccc2)c1 [Example 762]	< 0.5	< 0.5
CS(=O)(=O)Nc1cccc(C=C2c3ccccc3CCc3cc(OCCN4CCOCC4)ccc32)c1 [Example 427]	< 10	< 0.5
Oc1ccc(C=C2c3ccccc3CCc3cc(O)ccc32)cc1 (mixture of isomers) [Example 169, 5-(4-Hydroxy-benzylidene)-10,11-dihydro-5H-dibenzo[a,d]cyclohepten-2-ol]	< 0.5	< 0.5
COc1ccc2c(c1)COc1ccccc1[C@H]2Cc1cccc(NS(C)(=O)=O)c1 [Example 734]	< 0.5	< 0.5
Oc1cc(C=C2c3ccccc3CCc3c(Cl)cccc32)ccc1Cl [173(b), 2-Chloro-5-(1-chloro-10,11-dihydro-dibenzo[a,d]cyclohepten-5-ylidenemethyl)-phenol]	< 10	< 0.5
CS(=O)(=O)Nc1cccc(C(=C2c3ccccc3CCc3ccccc32)c2ccc(-c3ccccc3)cc2)c1 [Example 767]	< 0.5	< 0.5
COc1cc(F)cc(C=C2c3ccccc3CCc3ccccc32)c1 [Example 154, 5-(3-Fluoro-5-methoxy-benzylidene)-10,11-dihydro-5H-dibenzo[a,d]cycloheptene]	< 1	< 0.5
C/C(=C1\c2ccccc2COc2cc(F)ccc21)c1ccc2[nH]c(=O)[nH]c2c1 [Example 839]	< 0.5	< 0.5
Cc1ccc2c(c1)/C(=C\c1cccc(NS(C)(=O)=O)c1)c1ccccc1CO2 [Example 677]	< 0.5	< 0.5
CS(=O)(=O)Nc1cccc(/C=C2\c3ccccc3CCc3sccc32)c1 [Example 475]	< 10	< 0.5
CS(=O)(=O)Nc1cccc(/C=C2\c3ccc(F)cc3CCc3ncsc32)c1 [Example 564]	< 0.5	< 0.5
O/N=C/c1ccc(C=C2c3ccccc3CCc3ccccc32)cc1 [Example 79, 4-(10,11-Dihydro-dibenzo[a,d]cyclohepten-5-ylidenemethyl)-benzaldehyde oxime]	< 0.5	< 0.5
O=c1[nH]c2cc(C=C3c4ccccc4[C@H]4C[C@H]4c4ccccc43)ccc2o1 [Example 606]	< 0.5	< 0.5

SMILES	Ki (glucocorticoid receptor) [µM]	Ki (human MR) [µM]
C/C(=C1\c2ccc(F)cc2COc2cc(F)ccc21)c1cccc(NS(C)(=O)=O)c1 [Example 810]	< 0.5	< 0.5
CCS(=O)(=O)Nc1cccc(C=C2c3ccccc3CCc3cc(OC)ccc32)c1 (mixture of isomers) [Example 163, Ethanesulfonic acid [3-(2-methoxy-10,11-dihydro-dibenzo[a,d]cyclohepten-5-ylidenemethyl)-phenyl]-amide]	< 0.5	< 0.5
Cc1cccc2c1/C(=C\c1cccc(NS(C)(=O)=O)c1)c1ccccc1CC2 [Example 314]	< 0.5	< 0.5
Oc1cc(O)cc(C=C2c3ccccc3CCc3ccccc32)c1 [Example 54, 5-(10,11-Dihydro-dibenzo[a,d]cyclohepten-5-ylidenemethyl)-benzene-1,3-diol]	< 0.5	< 0.5
COC(=O)c1cccc(/C=C2\c3ccc(F)cc3CCc3ncccc32)c1 [Example 585]	< 10	< 0.5
N#Cc1ccc2c(c1)CCc1ccccc1/C2=C/c1ccc2[nH]c(=O)[nH]c2c1 [Example 455]	< 10	< 0.5
COc1cccc(C=C2c3ccccc3CCc3ccccc32)c1F [Example 152, 5-(2-Fluoro-3-methoxy-benzylidene)-10,11-dihydro-5H-dibenzo[a,d]cycloheptene]	< 10	< 0.5
CS(=O)(=O)Nc1cccc(/C=C2/c3ccc(F)cc3COc3ccccc32)c1 [Example 724]	< 0.5	< 0.5
CS(=O)(=O)Nc1cccc(C=C2c3ccccc3CCc3ccc(F)cc32)c1 (mixture of isomers) [Example 214, N-[3-(3-Fluoro-10,11-dihydro-dibenzo[a,d]cyclohepten-5-ylidenemethyl)-phenyl]-methanesulfonamide]	< 0.5	< 0.5
CS(=O)(=O)Nc1cccc(/C=C2\c3ccc(Cl)cc3CCc3sc(Cl)cc32)c1 [Example 482, N-[3-(2,7-Dichloro-9,10-dihydro-1-thia-benzo[f]azulen-4-ylidenemethyl)-phenyl]-methanesulfonamide]	< 0.5	< 0.5
C(=C1c2ccccc2CCc2ccccc21)c1ccc2nc[nH]c2c1 [Example 443]	< 10	< 0.5
COc1ccc(N)cc1C=C1c2ccccc2CCc2ccccc21 [Example 41, 3-(10,11-Dihydro-dibenzo[a,d]cyclohepten-5-ylidenemethyl)-4-methoxy-phenylamine]	< 10	< 1
Cc1ccc2c(c1)CCc1cc(F)ccc1C2=Cc1cccc(NS(C)(=O)=O)c1 [Example 420]	< 0.5	< 0.5
CS(=O)(=O)Nc1cccc(C=C2c3cccc(F)c3CCc3c(F)cccc32)c1 [Example 201, N-[3-(1,9-Difluoro-10,11-dihydro-dibenzo[a,d]cyclohepten-5-ylidenemethyl)-phenyl]-methanesulfonamide]	< 0.5	< 0.5
Oc1cccc(C=C2c3ccccc3CCc3cc(OCCN4CCOCC4)ccc32)c1 [195(a), 3-[2-(2-Morpholin-4-yl-ethoxy)-10,11-dihydro-dibenzo[a,d]cyclohepten-5-ylidenemethyl]-phenol]	< 1	< 0.5
Oc1ccc(C=C2c3ccccc3CCc3cc(Cl)ccc32)cc1 [Example 180, 4-(2-Chloro-10,11-dihydro-dibenzo[a,d]cyclohepten-5-ylidenemethyl)-phenol]	< 1	< 0.5
CS(=O)(=O)Nc1cccc(/C=C2\c3cc(F)ccc3COc3ccccc32)c1 [Example 730]	< 0.5	< 0.5

From US20060063759A1, “Tricyclic steroid hormone nuclear receptor modulators” (priority 2002, published 2006)
